# Laboratory results taken from publication PMC9939793 (Infection and Drug Resistance, 2023).
# Key:
# [1] = tested on: A(H3N2) PA-I38M isolate (A/Berlin/9/2020); type: cell-based, influenza A(H3N2)
# [2] = target: neuraminidase of A(H1N1)pdm09-S247N isolate (A/NRW/142/2019) (Influenza A virus, UniProt A0A0X9QTS2, S247N); type: biochemical
Structure (SMILES),reduction of antiviral activity [1],IC50 increase [2]
"COC(=O)OCOc1c2n(ccc1=O)N([C@@H]1c3ccccc3SCc3c1ccc(F)c3F)[C@@H]1COCCN1C2=O [baloxavir marboxil, Baloxavir marboxil]",up to 5 fold,
"CCC(CC)[C@H](NC(C)=O)[C@@H]1[C@H](O)[C@@H](C(=O)O)C[C@H]1N=C(N)N [Peramivir, peramivir]",,up to 7 fold
"CC(=O)N[C@H]1[C@H]([C@H](O)[C@H](O)CO)OC(C(=O)O)=C[C@@H]1N=C(N)N [Zanamivir, zanamivir]",,up to 7 fold
